The results in this text go back to patent publication US11576979B2, “Pyrrolobenzodiazepine prodrugs and antibody conjugates thereof” (GENENTECH, INC., priority 2016, dated 2023).

The subject of one test is MES-SA/Dx5. In words: Standard cell panel (Table 7B). Format: cell-based. The note with it: Homo sapiens. An excerpt:
(§1) PBD dimer control 1 and PBD dimer control 2 were further evaluated in standard cell panels against a number of cell lines.

Another test has as its system MES-SA. In words: Standard cell panel (Table 7B). Format: cell-based. The note with it: Homo sapiens.
From the text: as §1

In a further test the test system is BJAB/Pgp. In words: Standard cell panel (Table 7B). Format: cell-based. The note with it: Homo sapiens.
From the text: as §1

Another test concerns A2058. In words: Standard cell panel (Table 7B). Format: cell-based. The note with it: Homo sapiens.
From the text: as §1

In another test the test system is DLD-1. In words: Standard cell panel (Table 7B). Format: cell-based. The note with it: Homo sapiens.
From the text: as §1

For a further test, the system named is BJAB. In words: Standard cell panel (Table 7B). Format: cell-based. The note with it: Homo sapiens.
From the text: as §1

In another test the test system is MDA-MB-231. In words: Standard cell panel (Table 7B). Format: cell-based. The note with it: Homo sapiens.
From the text: as §1

For a further test, the system named is KPL-4. In words: Standard cell panel (Table 7B). Format: cell-based. The note with it: KPL4.
From the text: as §1

The test system of a further test is HL-60. In words: Standard cell panel (Table 7B). Format: cell-based. The note with it: Homo sapiens.
From the text: as §1

In a further test the test system is HCT 116. In words: Standard cell panel (Table 7B). Format: cell-based. The note with it: Homo sapiens.
From the text: as §1

Test [1] deals with double strand DNA Oligos 1 and 2. In words: DNA oligo binding, LC/MS/UV. The note with it: 100 uM compound, 100 uM DNA, 1 hour, 37 C. As to the method:
For DNA binding determination, the compounds were incubated at 100 μM with 100 μM double strand DNA Oligos 1 and 2 for 1 hour in 10 mM Bis-Tris, pH 7.1 at 37° C. The single strand DNA Oligos (5′-TATAGAATCTATA-3′ and 3′-ATATCTTAGATAT-5′) were synthesized at Genentech. The samples were analyzed by LC/MS/UV (210-450 nm) on Sciex TripleTOF 5600 on a Hypersil Gold C18 column (100×2.1, 1.9 Thermo Scientific). The column was eluted at 0.4 mL/min by a gradient of buffer A (50 mM hexafluoro-isopropanol and 15 mM diisopropylethylamine) to buffer B (50% A and 50% of 1:1 methanol:acetonitrile), 5% 0-0.5 min, 5-25% B 0.5-25 min, 25-95% B 25-40 min, and to 95% B 40-42 min. The % remaining was an average of the starting DNA oligos remaining in incubations (n=2). The products were characterized by LC/MS in a negative ESI ion mode.

In the next test the test system is NCI-H1781. In words: Standard cell panel (Table 7B). Format: cell-based.
From the text: as §1

The subject of the next test is SW 900. In words: Standard cell panel (Table 7B). Format: cell-based. The note with it: Homo sapiens, SW900.
From the text: as §1

Another test has as its system HCC1937. In words: Standard cell panel (Table 7B). Format: cell-based. The note with it: Homo sapiens.
From the text: as §1

Another test has as its system T-47D. In words: Standard cell panel (Table 7B). Format: cell-based. The note with it: Homo sapiens, T47D.
From the text: as §1

Another test concerns HCC1569 X2. In words: Standard cell panel (Table 7B). Format: cell-based. The note with it: Homo sapiens.
From the text: as §1

The subject of another test is SK-BR-3. In words: CellTiter-Glo toxicity, 3 days (Example 7). The note with it: Homo sapiens, SK-BR-3, 72 h, read-out: SK-BR-3 IC50 (nM). Format: cell-based. As to the method:
The toxicity of PBD monomer disulfide prodrugs 1 to 4, PBD dimer disulfide prodrugs 1 and 4, PBD monomer control 1 and PBD dimer control 1 were evaluated against SK-BR-3 cell cultures. […] The HER2-positive breast cancer cell line, SK-BR-3, was obtained internally at Genentech after having been verified by sequence analysis. The cells were grown at 37 Celsius in DMEM+10% FBS supplemented with 2 mM L-glutamine for the duration of this assay. On the first day of the experiment, designated “Day −1”, SK-BR-3 cells were harvested from tissue culture flasks, counted, and then seeded into 96-well plates at a concentration of 7,500 cells per well. The next day, designated “Day 0”, cell culture media was removed from the cells and replaced with 100 uL of fresh media containing a serial dilution (1:3) of the compounds in Table 5 below. The plates were then returned to the 37 Celsius incubator and allowed to incubate for 3 days. On “Day 3” of the assay, the plates were removed from the incubator and allowed to equilibrate to room temperature before adding 100 uL of room-temperature CellTiter-Glo reagent (Promega). The plates were then agitated at 300 rpm for 10 minutes. The luminescence signal generated from this reaction was recorded on an Envision plate reader (Perkin-Elmer). The data were arranged in Excel (Microsoft) and graphed in Kaleidagraph (Synergy Software).

The subject of the next test is WSU Cell line. In words: Cell viability, DTD-activated quinone prodrugs (Example 15). Format: cell-based. The note with it: read-out: IC50 Potency (nM). As to the method: (§2) The toxicity of PBD dimer diaphorase prodrug 1, PBD monomer diaphorase prodrug 2, PBD dimer control 1 and PBD monomer control 1 were evaluated against KPL-4 and WSU cell lines for cell viability. The KPL-4 cell line is was a high DTD cell line characterized by NQO1 nRPKM of 839 and the WSU cell line was a low DTD cell line characterized by a NQO1 nRPKM of 1.36. The IC50 ratios are based on the prodrug IC50 value relative to the PBD dimer control.

A further test concerns KPL-4 Cell line. Described as above. Format: cell-based. The note with it: KPL4, read-out: IC50 Potency (nM). As to the method:
as §2

The next test deals with Igrov-1. In words: CellTiter-Glo toxicity, 4 days (Example 9). The note with it: Homo sapiens, IGROV-1, 96 h, 4 days of drug incubation; Table 7A. Format: cell-based. In outline:
(§3)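 Cells were seeded in 384-well plates, dosed 24 h later and incubated with drug for 4 days. Viability was read as ATP luminescence by CellTiter-Glo and normalised to untreated controls. IC50 is the concentration giving 50% of maximum cell killing.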

For a further test, the system named is UACC-257. In words: CellTiter-Glo toxicity, 4 days (Example 9). Format: cell-based. The note with it: Homo sapiens, UACC-257, 96 h, 4 days of drug incubation; Table 7A. In outline: as §3
(In general: Cellular ATP, detected with luciferase, serves as a proxy for viable cell number.)

One may read the IC50 as the midpoint of a concentration-inhibition curve. In the case of `C=C1C[C@H]2CNc3cc(OCCCCCOc4cc5c(cc4OC)C(=O)N4CC(=C)C[C@H]4CN5)c(OC)cc3C(=O)N2C1` [PBD dimer control 2], the IC50 is more than 100 nM in the test with MES-SA/Dx5; 10 nM in the test with MES-SA; 53.7 nM with BJAB/Pgp; 5.3 nM in the test with A2058; more than 100 nM in the test on DLD-1; 4.9 nM in the test on BJAB. Besides, the IC50 in the test with MDA-MB-231 worked out at 73.2 nM; with KPL-4 it was 67.4 nM; in the test on HL-60, 2.4 nM; in the test with HCT 116, 15 nM. The “% DNA oligo remaining” value in test [1] came to 100%.

With `C=C1C[C@H]2C=Nc3cc(OCCCCCOc4cc5c(cc4OC)C(=O)N4CC(=C)C[C@H]4C=N5)c(OC)cc3C(=O)N2C1` [PBD dimer control 1], the IC50 worked out at 0.011 nM in the test on NCI-H1781; 0.56 nM in the test on MES-SA/Dx5; 0.078 nM in the test with SW 900; 0.028 nM in the test with MES-SA; 0.15 nM in the test with HCC1937; 0.015 nM in the test with BJAB. For the same compound, the IC50 in the test with T-47D is 0.032 nM; in the test on KPL-4, 0.053 nM; in the test on HCC1569 X2, 0.097 nM; with SK-BR-3, 0.144 nM; in the test with WSU Cell line, 0.2 nM; in the test on KPL-4 Cell line, 2.09 nM. The half-inhibitory concentration (IC50) with Igrov-1 came to 0.061 nM; in the test on UACC-257 it was 0.95 nM. In test [1], the “% DNA oligo remaining” value is given as less than 1%.
